In the experiment the test system is P388 leukemia ip, CD2F1 mice, survival T/C. Nature of the experiment: NCI In Vivo Anticancer Drug Screen. Data for tumor model P388 Leukemia (intraperitoneal) in CD2F1 (CDF1) mice. As to conditions: endpoint: median survival time, higher = longer survival. The procedure, abridged: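 Mice carrying the transplanted tumor received test compound or vehicle. Survival was recorded in each group, and the value is the treated-group measurement divided by that of the vehicle-treated control group.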

Setting [1] is: dose: 6.25 mg/kg/injection, schedule: Q01DX009 (ip), vehicle: saline.
Where [2] appears, read: dose: 12.5 mg/kg/injection, schedule: Q01DX009 (ip), vehicle: saline with Tween-80.
The mark [3] stands for this setting: dose: 50.0 mg/kg/injection, schedule: Q01DX009 (ip), vehicle: saline with Tween-80.
[4] abbreviates: dose: 12.5 mg/kg/injection, schedule: Q01DX009 (ip), vehicle: Klucel (hydroxypropylcellulose) (HPC).
The mark [5] stands for this setting: dose: 25.0 mg/kg/injection, schedule: Q01DX009 (ip), vehicle: Klucel (hydroxypropylcellulose) (HPC).
Where [6] appears, read: dose: 50.0 mg/kg/injection, schedule: Q01DX009 (ip), vehicle: Klucel (hydroxypropylcellulose) (HPC).
[7] abbreviates: dose: 100.0 mg/kg/injection, schedule: Q01DX009 (ip), vehicle: saline with Tween-80.
Where [8] appears, read: dose: 3.12 mg/kg/injection, schedule: Q01DX009 (ip), vehicle: saline.
[9] abbreviates: dose: 25.0 mg/kg/injection, schedule: Q01DX005 (ip), vehicle: Klucel (hydroxypropylcellulose) (HPC).
[10] abbreviates: dose: 100.0 mg/kg/injection, schedule: Q04DX003 (ip), vehicle: saline with Tween-80.
Where [11] appears, read: dose: 200.0 mg/kg/injection, schedule: Q04DX003 (ip), vehicle: saline with Tween-80.
Setting [12] is: dose: 400.0 mg/kg/injection, schedule: Q04DX003 (ip), vehicle: saline with Tween-80.
Where [13] appears, read: dose: 100.0 mg/kg/injection, schedule: Q04DX002 (ip), vehicle: saline with Tween-80.
Setting [14] is: dose: 50.0 mg/kg/injection, schedule: Q01DX005 (ip), vehicle: Klucel (hydroxypropylcellulose) (HPC).
Where [15] appears, read: dose: 100.0 mg/kg/injection, schedule: Q01DX005 (ip), vehicle: Klucel (hydroxypropylcellulose) (HPC).
The mark [16] stands for this setting: dose: 200.0 mg/kg/injection, schedule: Q01DX005 (ip), vehicle: Klucel (hydroxypropylcellulose) (HPC).

Values joined by “and” are separate entries in the source; they are usually repeats but may differ in a detail not shown here. Identical values can stand only once. Toxic doses and inconclusive results are not listed.

On to `O=C(CCCN1CCC(C(=O)c2ccc(F)cc2)CC1)c1ccc(F)cc1`, for which the T/C is 92 % of control (dose: 1.56 mg/kg/injection, schedule: Q01DX009 (ip), vehicle: saline); 93 % of control (dose: 3.13 mg/kg/injection, schedule: Q01DX009 (ip), vehicle: saline); 100 % of control (dose: 6.25 mg/kg/injection, schedule: Q01DX009 (ip), vehicle: saline with Tween-80); 104 % of control under setting [1]; 100 % of control under setting [2]; 110 % of control (dose: 25.0 mg/kg/injection, schedule: Q01DX009 (ip), vehicle: saline with Tween-80). Under setting [3], the T/C was 118 % of control.

For `Cc1nc(Br)c(C(O)c2ccccc2)n1C` (configuration not stated), the T/C by setting is: (dose: 60.0 mg/kg/injection, schedule: Q01DX005 (ip), vehicle: saline with Tween-80) 103 % of control; (dose: 120.0 mg/kg/injection, schedule: Q01DX005 (ip), vehicle: saline with Tween-80) 92 % of control; (dose: 240.0 mg/kg/injection, schedule: Q01DX005 (ip), vehicle: saline with Tween-80) 97 % of control.

With `COc1ccc([N+]([O-])=NC#N)cc1`, the T/C was 95 % of control under setting [4]; 98 % of control under setting [5]; 109 % of control under setting [6]; 99 % of control (dose: 50.0 mg/kg/injection, schedule: Q04DX003 (ip), vehicle: Klucel (hydroxypropylcellulose) (HPC)); 100 % of control (dose: 100.0 mg/kg/injection, schedule: Q04DX003 (ip), vehicle: Klucel (hydroxypropylcellulose) (HPC)).

Consider `CC(C)c1ccc(OS(=O)(=O)C(F)(F)C(F)(F)C(F)(F)C(F)(F)F)cc1`, for which the T/C is, setting by setting: under setting [3], 99 % of control; under setting [7], 105 % of control.

For the compound `CCN(CC)C(=NC(C)(C)C)c1ccccc1`, the T/C was 101 % of control and 93 % of control and 97 % of control under setting [8]; 107 % of control (dose: 6.25 mg/kg/injection, schedule: Q01DX005 (ip), vehicle: Klucel (hydroxypropylcellulose) (HPC)); 96 % of control and 97 % of control under setting [1]; 100 % of control (dose: 12.5 mg/kg/injection, schedule: Q01DX005 (ip), vehicle: Klucel (hydroxypropylcellulose) (HPC)); 107 % of control under setting [9]; 99 % of control (dose: 50.0 mg/kg/injection, schedule: Q01DX009 (ip), vehicle: saline).

Consider `C=CCNc1ncnc2c1cnn2C`, for which the T/C was 104 % of control (dose: 50.0 mg/kg/injection, schedule: Q04DX003 (ip), vehicle: saline with Tween-80) and 104 % of control under setting [10].

Turning to `COc1ccc(-c2ccc(OC)c(OC)c2OC)c(N)c1`, the T/C under setting [10] was 99 % of control and 110 % of control; the T/C under setting [11] is 104 % of control and 110 % of control; the T/C under setting [12] was 114 % of control and 115 % of control.

With `O=[N+]([O-])c1c(N2CCN(CCO)CC2)ccc2nonc12`, the T/C is 100 % of control (dose: 50.0 mg/kg/injection, schedule: Q01DX009 (ip), vehicle: suspension in saline) and 108 % of control (dose: 100.0 mg/kg/injection, schedule: Q01DX009 (ip), vehicle: suspension in saline).

For `O=C(c1ccc(Cl)cc1)c1nnc(Cl)s1`, the T/C under setting [3] is 110 % of control; the T/C under setting [7] is 118 % of control; the T/C (dose: 200.0 mg/kg/injection, schedule: Q01DX009 (ip), vehicle: saline with Tween-80) is 101 % of control.

With `COc1ccc2c(c1)CCC1=C2N=CN2CCN=C12`, the T/C under setting [13] is 102 % of control.

As to `O=C1C=CC(CCCCCn2ccc(=O)[nH]c2=O)C(=O)N1` (configuration not stated), the T/C (dose: 100.0 mg/kg/injection, schedule: Q01DX001 (ip), vehicle: saline) is 90 % of control; the T/C (dose: 200.0 mg/kg/injection, schedule: Q01DX001 (ip), vehicle: saline) was 100 % of control; the T/C (dose: 400.0 mg/kg/injection, schedule: Q01DX001 (ip), vehicle: saline) is 100 % of control.

For the compound `O=C(Nc1nc2cc(Cl)ccc2o1)c1ccc(C(=O)Nc2nc3cc(Cl)ccc3o2)cc1`, the T/C reads like this: under setting [10], 108 % of control; under setting [11], 94 % of control; under setting [12], 99 % of control.

Turning to `CC[C@@]1(O)C[C@H](OC2CC(N(C)C)C(OC3CC(O)C(OC4CCC(=O)C(C)O4)C(C)O3)C(C)O2)c2c(cc3c(c2O)C(=O)c2c(O)ccc(O)c2C3=O)[C@H]1C(=O)OC` (some centres not stated), the T/C is, setting by setting: (dose: 1.56 mg/kg/injection, schedule: Q04DX003 (ip), vehicle: saline) 116 % of control; (dose: 2.0 mg/kg/injection, schedule: Q04DX003 (ip), vehicle: saline with Tween-80) 154 % of control and 161 % of control; (dose: 2.59 mg/kg/injection, schedule: Q04DX003 (ip), vehicle: water) 160 % of control; (dose: 4.32 mg/kg/injection, schedule: Q04DX003 (ip), vehicle: saline) 152 % of control and 153 % of control and 160 % of control; (dose: 4.32 mg/kg/injection, schedule: Q04DX003 (ip), vehicle: water) 151 % of control and 169 % of control; (dose: 7.2 mg/kg/injection, schedule: Q04DX003 (ip), vehicle: saline) 164 % of control and 180 % of control. Besides, the T/C (dose: 8.0 mg/kg/injection, schedule: Q04DX003 (ip), vehicle: saline with Tween-80) is 94 % of control and 98 % of control; the T/C (dose: 12.0 mg/kg/injection, schedule: Q04DX003 (ip), vehicle: saline) was 103 % of control; the T/C (dose: 12.0 mg/kg/injection, schedule: Q04DX003 (ip), vehicle: water) was 92 % of control.

For the compound `CCOC(=O)C(N)CSCSC` (configuration not stated), the T/C is 88 % of control (dose: 50.0 mg/kg/injection, schedule: Q01DX009 (ip), vehicle: water); 97 % of control (dose: 100.0 mg/kg/injection, schedule: Q01DX009 (ip), vehicle: water); 86 % of control (dose: 200.0 mg/kg/injection, schedule: Q01DX009 (ip), vehicle: water); 94 % of control (dose: 400.0 mg/kg/injection, schedule: Q01DX009 (ip), vehicle: water).

As to `CN(C)CCCN=c1c2ccccc2n(O)c2cccc([N+](=O)[O-])c12`, the T/C by setting is: (dose: 1.56 mg/kg/injection, schedule: Q01DX009 (ip), vehicle: saline with Tween-80) 123 % of control; under setting [8], 117 % of control; under setting [2], 104 % of control.

`COc1ccc2c3c(c(=O)n(C)c2c1OC)C=CC(C)(C)O3`: the T/C was 94 % of control under setting [9], 100 % of control under setting [14], 100 % of control under setting [15] and 88 % of control under setting [16].

`CC1=CC(=C2C(=O)c3ccccc3C2=O)C=C(C)O1`: the T/C was 101 % of control under setting [14]; 95 % of control (dose: 60.0 mg/kg/injection, schedule: Q01DX005 (ip), vehicle: Klucel (hydroxypropylcellulose) (HPC)); 89 % of control under setting [15]; 90 % of control (dose: 120.0 mg/kg/injection, schedule: Q01DX005 (ip), vehicle: Klucel (hydroxypropylcellulose) (HPC)); 88 % of control under setting [16]; 87 % of control (dose: 240.0 mg/kg/injection, schedule: Q01DX005 (ip), vehicle: Klucel (hydroxypropylcellulose) (HPC)).

On to `CSc1nc(NN)c2cnn(C3CCCCO3)c2n1` (configuration not stated), for which the T/C by setting is: under setting [13], 100 % of control; (dose: 200.0 mg/kg/injection, schedule: Q04DX002 (ip), vehicle: saline with Tween-80) 96 % of control; (dose: 400.0 mg/kg/injection, schedule: Q04DX002 (ip), vehicle: saline with Tween-80) 94 % of control.

For `CCOC(=O)c1ccc(NN=NC(C)(C)C)cc1`, the T/C is 91 % of control (dose: 12.5 mg/kg/injection, schedule: Q01DX009 (ip), vehicle: distilled water + Tween-80); 93 % of control (dose: 25.0 mg/kg/injection, schedule: Q01DX009 (ip), vehicle: distilled water + Tween-80); 86 % of control (dose: 50.0 mg/kg/injection, schedule: Q01DX009 (ip), vehicle: distilled water + Tween-80); 93 % of control (dose: 100.0 mg/kg/injection, schedule: Q01DX009 (ip), vehicle: distilled water + Tween-80); 86 % of control (dose: 200.0 mg/kg/injection, schedule: Q01DX009 (ip), vehicle: distilled water + Tween-80).

On to `O=C1NC(c2cccc3ccccc23)Nc2ccc(Cl)cc21` (configuration not stated), for which the T/C was 113 % of control under setting [4], 123 % of control under setting [5] and 123 % of control under setting [6].

These data come from PubChem BioAssay AID330 (DTP/NCI, 2004).
